In data set [1] the target is T1, dNCS-1 (Drosophila melanogaster, UniProt Q9VWX8).
T1 construct: made in house; host or cells: E. coli
T1 sequence (Q9VWX8 1-187): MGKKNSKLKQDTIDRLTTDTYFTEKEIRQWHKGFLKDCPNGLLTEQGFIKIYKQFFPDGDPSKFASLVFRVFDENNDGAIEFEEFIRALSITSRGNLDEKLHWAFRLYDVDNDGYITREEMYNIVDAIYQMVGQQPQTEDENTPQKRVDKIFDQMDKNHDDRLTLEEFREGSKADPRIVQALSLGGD
Description: Tryptophan emission fluorescence of dNCS-1 at increasing ligand concentrations (apparent Kd). It counts as binding. As to conditions: for Kd: Ca2+ loaded dNCS-1 0.8 µM, pH 7.9, 5% DMSO, 5 °C, fit to 1:1 stoichiometry, three independent experiments. How it is done: (§1) Fluorescence-based experiments with 3a–3e were carried out to estimate their affinity to dNCS-1.
Mean ± SD from three independent experiments. The curves represent the least squares fitting of the experimental data to a 1:1 stoichiometry. To properly compare the different curves, intensities were normalized and represented. […] Input represents 1/10 cell lysates before IP. Quantifications of each lane from four experiments are shown below the blots. Bars represent percentage of NCS-1/ Ric8a binding (mean ± SD) normalized to DMSO. […] Mean ± SD from three independent experiments. […] Then, the percentage of picnotic bodies over the total nuclei was analyzed. Mean ± SD from three independent experiments. Paired two-tailed Student’s test ***P˂0.001; **P < 0.01; *P < 0.05. Source data are provided as a Source Data file. IP immunoprecipitation, WB western blot […]
the length of the pass light (L) is 1cm (see Supplementary Table 3 and Supplementary […]
Fluorescence emission experiments. Tryptophan emission fluorescence of dNCS-1 […]
affinity and calculate the apparent dissociation constant, Kd. Fluorescence measurements were performed by Jobin Yvon Floromax4 spectrofluorimeter equipped […]
5% DMSO at 5 °C. The excitation wavelength was fixed at 295 nm, and the emission spectra range were collected over 300-400 nm.
Then, three independent experiments were performed
Fluorescence intensities were normalized and represented as (I0 − I)/I 0. I stands for the observed fluorescence emission at 345 nm (fluorescence maximum), and I0 is the observed fluorescence emission of the protein itself without any small molecule. The apparent dissociation constant was obtained using a least squares algorithm to fit the experimental data to a 1:1 stoichiometry model.6 The fitting was performed with KaleidaGraph Data Analysis Program. […]
Protein expression and purification. Drosophila and human NCS-1 were over-expressed in E. coli and subsequently purified to homogeneity as previously described.9

In data set [2] the target is T2, NCS-1/Ric8a interaction (Homo sapiens, UniProt P62166).
T2 construct: expressed in transfected cells; host or cells: HEK293 cells (Dharmacon)
Description: Co-IP binding assay of human NCS-1 and V5-tagged Ric8a in transfected HEK cells. It counts as cell-based. To be noted: compound 20 μM; for modulation of the NCS-1/Ric8a binding: compared with DMSO (basal binding 100%); for Densitometry of V5-Ric8a co-immunoprecipitated with NCS-1, exp4: DMSO in the same experiment 3222255; for Densitometry of V5-Ric8a co-immunoprecipitated with NCS-1, exp3: DMSO in the same experiment 4613104; for Densitometry of V5-Ric8a co-immunoprecipitated with NCS-1, exp2: DMSO in the same experiment 9508518; for Densitometry of V5-Ric8a co-immunoprecipitated with NCS-1, exp1: DMSO in the same experiment 19247016. An excerpt: Mean ± SD from three independent experiments. The curves represent the least squares fitting of the experimental data to a 1:1 stoichiometry. To properly compare the different curves, intensities were normalized and represented. […] Input represents 1/10 cell lysates before IP. Quantifications of each lane from four experiments are shown below the blots. Bars represent percentage of NCS-1/ Ric8a binding (mean ± SD) normalized to DMSO. […] CNS + (green) for Pe > 4.47 × 10^−6 cm s^−1, CNS- (red) for compounds with Pe < 4.47 × 10^–6 cm s^−1. […] Mean ± SD from three independent experiments. […] Then, the percentage of picnotic bodies over the total nuclei was analyzed. Mean ± SD from three independent experiments. Paired two-tailed Student’s test ***P˂0.001; **P < 0.01; *P < 0.05. Source data are provided as a Source Data file. IP immunoprecipitation, WB western blot
Binding assays with NCS-1 and Ric8a in co-transfected HEK cells were carried out to study the modulation effect of compounds 3a, 3b and 3d in the protein-protein interaction (Fig. 6b).
hNCS-1 and V5-tagged hRic8a were co-transfected into HEK293 cells (Dharmacon) using Lipofectamine 2000 (Invitrogen)[13]. After 24 h, after transfection, DMSO alone or the compounds dissolved in DMSO (20 μM) were added to the culture cells. Then, 24 h after transfection, cells were lysed with Lysis buffer (150 mM NaCl, 1.0% Nonidet P-40, 50 mM Tris, pH 8.0) in the presence of the compounds (20 μM), whose concentration was maintained throughout the immunoprecipitation assay. Precleared lysates were incubated overnight (12 h) at 4 °C with mouse anti-NCS-1 (1:500; Cell Signaling). Samples were subsequently incubated overnight with Protein-G-Sepharose (Sigma-Aldrich), washed and eluted from the Sepharose. Samples were analyzed by Western blot following standard procedures. […] Original representative western blots are found in Source Data file.

For data set [3] the following is noted: pH 7.9. The protocol:
as §1

The target of data set [4] is T1, dNCS-1. Description: tr-NOESY, DOSY and 1H-NMR of DCL mixtures in the presence of dNCS-1. The data set is classed as binding. To be noted: 281 K, up to 15 days. How it is done: Fig. 4 HPLC-MS and NMR studies of the full dynamic combinatorial library. a DCL chromatograms after 5 h in the absence and in the presence of dNCS-1. Conditions: aldehyde 1 (1.2 µL, 50 mM), 2a–2e (3.6 µL, 50 mM), catalyst (1 µL, 12 M), dNCS-1:1 [1:1], Tris buffer (20 mM, pH 7.4), 1 mM CaCl2, 0.5 M NaCl, 1 mM DTT, T = 4 °C, 2% DMSO. DCC experiments were carried out in triplicate. b 1D-^1H NMR spectrum (red) of the mixture and DOSY experiment (black) of the DCL in the presence of dNCS-1 (281 K, 600 MHz). c Tr-NOESY spectrum of the DCL mixture in the presence of dNCS-1 (mixing time 200 ms, 281 K, 600 MHz). Amplification of the region δ 7.2–8.0 ppm. […]. The new signals that reveal the formation of 3b (aromatic region) and 2c (aliphatic region) are marked with stars. ^1H-STD-NMR (blue) and off-resonance (red) NMR spectra of the mixture 2b + 3c + dNCS-1 (281 K, 600 MHz) after 15 days
DOSY-NMR and tr-NOESY-NMR experiments were also recorded to follow the exchange process.
The experiments were performed on the same samples and spectrometer, at 281 K. The tr-NOESY mixing time was fixed at 200 ms. The DOSY experiments were acquired with 16 gradient increments to a final intensity decay of 90%.

“Also recorded” adds a separate entry of the source.

T2 sequence (P62166 2-190 limits assumed): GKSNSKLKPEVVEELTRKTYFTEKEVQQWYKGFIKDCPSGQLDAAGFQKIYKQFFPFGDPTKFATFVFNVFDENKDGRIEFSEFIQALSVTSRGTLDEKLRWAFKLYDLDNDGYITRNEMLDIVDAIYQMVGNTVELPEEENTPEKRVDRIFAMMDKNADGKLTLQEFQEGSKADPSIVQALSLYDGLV

Regarding `O=C(NN=Cc1ccc([N+](=O)[O-])c(O)c1)C(O)c1ccccc1` (mixture of isomers) [3d], in data set [1], the Kd was determined as 61 ± 9 µM. Besides, the “Normalized Fluorescence I0-I/I0” value is reported as 0.123 in data set [1] (ligand 3.2 μM); 0.086 in data set [1] (ligand 6.4 μM); 0.187 in data set [1] (ligand 8 μM); 0.280 in data set [1] (ligand 16 μM); 0.401 in data set [1] (ligand 24 μM); 0.424 in data set [1] (ligand 32 μM). Moreover, the “Normalized Fluorescence I0-I/I0” value in data set [1] (ligand 48 μM) came out at 0.549; in data set [1] (ligand 64 μM), 0.700; in data set [1] (ligand 80 μM), 0.766; in data set [1] (ligand 96 μM) it was 0.802. The “modulation of the NCS-1/Ric8a binding” value in data set [2] is “strong binding; also recorded: promote the stabilization of the NCS-1/Ric8a interaction”. In addition, in data set [2], the “Densitometry of V5-Ric8a co-immunoprecipitated with NCS-1, exp4” value (shortened to “Densitometry … exp4”) came to 6181447. Moreover, the “Densitometry of V5-Ric8a co-immunoprecipitated with NCS-1, exp3” value (“Densitometry … exp3” for short) in data set [2] came to 9737953. Further, the “Densitometry of V5-Ric8a co-immunoprecipitated with NCS-1, exp2” value (“Densitometry … exp2” below) in data set [2] was 13428024. The “Densitometry of V5-Ric8a co-immunoprecipitated with NCS-1, exp1” value (shortened to “Densitometry … exp1”) in data set [2] was found to be 25716501.

As to `O=C(Cc1c[nH]c2ccccc12)NN=Cc1ccc([N+](=O)[O-])c(O)c1` (mixture of isomers) [3b], the Kd in data set [1] was determined as 43 ± 6 µM. Further, the “Normalized Fluorescence I0-I/I0” value in data set [1] (ligand 3.2 μM) was determined as 0.064; in data set [1] (ligand 6.4 μM) it was 0.094; in data set [1] (ligand 8 μM) it was 0.164; in data set [1] (ligand 16 μM) it was 0.334; in data set [1] (ligand 24 μM), 0.447; in data set [1] (ligand 32 μM), 0.600. Further, the “Normalized Fluorescence I0-I/I0” value in data set [1] (ligand 48 μM) amounted to 0.701; in data set [1] (ligand 64 μM) it was 0.814; in data set [1] (ligand 80 μM) it was 0.849; in data set [1] (ligand 96 μM), 0.900. The “modulation of the NCS-1/Ric8a binding” value in data set [2] is given as “strong binding; also recorded: promote the stabilization of the NCS-1/Ric8a interaction”. In data set [2], the “Densitometry … exp4” value is given as 9362004. In data set [2], the “Densitometry … exp3” value came out at 7268347. Besides, in data set [2], the “Densitometry … exp2” value came out at 15828581. Besides, the “Densitometry … exp1” value in data set [2] was determined as 32007200. Also, the “solubility observed under the experimental conditions” value in data set [3] is reported as “soluble”. Further, the “binding to dNCS-1 (1H-NMR evolution of the mixture 3c + 2b with dNCS-1)” value in data set [4] is listed as “a dNCS-1 ligand”.

On to `O=C(N/N=C/c1ccc([N+](=O)[O-])c(O)c1)c1ccco1` [3a], for which, in data set [1], the Kd was 32 ± 2 µM. Further, the “Normalized Fluorescence I0-I/I0” value came out at 0.131 in data set [1] (ligand 3.2 μM); 0.215 in data set [1] (ligand 6.4 μM); 0.262 in data set [1] (ligand 8 μM); 0.405 in data set [1] (ligand 16 μM); 0.544 in data set [1] (ligand 24 μM); 0.668 in data set [1] (ligand 32 μM). For the same compound, the “Normalized Fluorescence I0-I/I0” value in data set [1] (ligand 48 μM) is reported as 0.810; in data set [1] (ligand 64 μM), 0.878; in data set [1] (ligand 80 μM), 0.924; in data set [1] (ligand 96 μM), 0.955. For the same compound, the “modulation of the NCS-1/Ric8a binding” value in data set [2] was “reduced binding; also recorded: inhibitor similar to CPZ”. In addition, the “Densitometry … exp4” value in data set [2] is recorded as 1982719. Moreover, the “Densitometry … exp3” value in data set [2] came out at 1649426. The “Densitometry … exp2” value in data set [2] came out at 4838154. Further, in data set [2], the “Densitometry … exp1” value is 13971167.

(Values after paper PMC6595003, “Insights into real-time chemical processes in a calcium sensor protein-directed dynamic library” (Nature Communications, 2019).)
